Data: US20130101628A1 (NORTHWESTERN UNIVERSITY, priority 2011, published 2013)
* marks the point of attachment. Palmitoyl = CCCCCCCCCCCCCCCC(=O)*

Legend:
[1] = biological target: T1, VEGF receptor 1 (VEGFR1 or Flt-1) (Homo sapiens, UniProt P17948); experiment: Sandwich ELISA of phosphorylated VEGFR1 in lysates of stimulated HUVEC; type: cell-based; conditions: HUVEC time-course 0-60 minutes; falls below untreated baseline
T1 construct: host or cells: HUVEC
Experimental: Human umbilical vein endothelial cells (HUVECs) and complete endothelial cell growth media (EGM) were purchased (Genlantis, San Diego, Calif.), passaged two times following receipt, and cryo-preserved in media with 5% DMSO. Cells were thawed as needed and grown to confluence in a […] flasks (VWR Falcon) prior to plating for experiments.
Phosphorylation of both VEGFRI and VEGFR2 was assayed using commercially available assay kit (R&D Systems, Minneapolis, Minn.) following the recommended protocol. First, confluent HUVECs plated in 24 well plates were starved for 5 hours in serum-free defined media (SFDM, Genlantis) specifically designed to maintain cells in a growth factor-free setting for growth factor signaling and metabolic assays. Following starvation, the various treatments were dissolved in SFDM to a concentration of 1 μM. […] Cells were exposed to treatment for 2 minutes. To evaluate the time-course of phosphorylation the same protocol was followed and cells were exposed to VEGF-PA for 0, 1, 3, 5, 10, 15, 20, 25, 30, 40, 50, and 60 minutes.

[2] = test system: HUVECs; experiment: HUVEC proliferation (CyQUANT-NF cell number); type: cell-based, human; conditions: 1 μM in EGM, 48 hours; untreated control 100.0%
Experimental: In vitro studies were performed using HUVECs, a primary endothelial cell that is VEGF-responsive and frequently used as a model endothelial cell for angiogenesis studies in vitro [31].
To evaluate proliferation, HUVECs were plated at 5000 per well in a 96 well plate. […] Additionally, unsupplemented growth media was used as a control. After 48 hours, cell number was quantified using CyQUANT-NF (Invitrogen) and a standard fluorescent microplate reader. Cell number is expressed relative to the group treated with unsupplemented growth media.

[3] = test system: HUVECs; experiment: HUVEC migration scratch assay; type: cell-based, human; conditions: 1 μM in EBM with 0.5% FBS, 18 hours; untreated 25.2%
Experimental: To evaluate cell migration, endothelial basal media (EBM) without growth factors (Lonza) was supplemented with 0.5% FBS in order to prevent apoptosis but not promote significant migration or proliferation. Cells were grown to confluence in a 12 well plate and a 1 ml pipette tip was used to create a denuded scratch and the surface was washed twice with PBS to remove detached cells. The average scratch width at the initial time-point was […] Markings were placed on the underside of the plate to ensure the same region of the scratch was recorded in each image. […] The total pixel area of the scratch at the initial time-point was recorded using ImageJ analysis software, and the percent migration was determined from the reduction in denuded area at 18 hours.

T1 sequence (P17948 27-1338): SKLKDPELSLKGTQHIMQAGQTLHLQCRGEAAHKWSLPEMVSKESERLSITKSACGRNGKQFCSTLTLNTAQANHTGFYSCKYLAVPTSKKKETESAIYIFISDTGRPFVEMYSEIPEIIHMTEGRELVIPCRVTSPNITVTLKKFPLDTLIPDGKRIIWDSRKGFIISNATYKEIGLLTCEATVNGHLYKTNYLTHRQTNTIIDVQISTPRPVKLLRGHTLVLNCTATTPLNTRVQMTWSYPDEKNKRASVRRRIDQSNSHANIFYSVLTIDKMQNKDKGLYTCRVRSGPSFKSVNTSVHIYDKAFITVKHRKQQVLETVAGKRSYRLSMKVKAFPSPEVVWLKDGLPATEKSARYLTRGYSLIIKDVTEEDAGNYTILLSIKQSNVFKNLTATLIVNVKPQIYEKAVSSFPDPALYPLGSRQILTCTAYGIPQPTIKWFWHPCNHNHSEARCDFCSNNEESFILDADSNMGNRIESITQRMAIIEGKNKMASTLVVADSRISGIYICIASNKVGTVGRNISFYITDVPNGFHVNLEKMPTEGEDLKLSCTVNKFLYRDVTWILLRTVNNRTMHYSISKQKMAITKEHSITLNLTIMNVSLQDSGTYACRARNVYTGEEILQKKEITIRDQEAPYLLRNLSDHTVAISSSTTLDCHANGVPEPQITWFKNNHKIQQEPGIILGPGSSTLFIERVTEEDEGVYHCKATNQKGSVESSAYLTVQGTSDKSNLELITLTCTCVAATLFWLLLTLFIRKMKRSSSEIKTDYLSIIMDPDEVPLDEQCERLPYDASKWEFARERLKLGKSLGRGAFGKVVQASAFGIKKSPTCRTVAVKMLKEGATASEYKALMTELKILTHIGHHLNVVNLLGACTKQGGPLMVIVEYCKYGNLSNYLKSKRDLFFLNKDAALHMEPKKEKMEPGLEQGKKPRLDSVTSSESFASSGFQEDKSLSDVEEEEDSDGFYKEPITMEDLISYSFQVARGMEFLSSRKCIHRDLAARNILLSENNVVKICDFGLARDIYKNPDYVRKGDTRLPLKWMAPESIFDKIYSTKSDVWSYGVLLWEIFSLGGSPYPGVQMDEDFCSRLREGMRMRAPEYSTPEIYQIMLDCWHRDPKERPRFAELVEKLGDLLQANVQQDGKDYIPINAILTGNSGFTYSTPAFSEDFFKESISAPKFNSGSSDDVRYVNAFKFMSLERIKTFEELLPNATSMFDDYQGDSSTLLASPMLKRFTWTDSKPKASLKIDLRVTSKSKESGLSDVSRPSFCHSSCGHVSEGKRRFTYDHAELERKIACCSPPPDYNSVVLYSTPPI

CH3(CH2)14C(O)— VVAAKKKGKLTWQELYQLKYKGI-NH2 (Palmitoyl-VVAAKKKGKLTWQELYQLKYKGI-NH2; SMILES CCCCCCCCCCCCCCCC(=O)N[C@H](C(=O)N[C@H](C(=O)N[C@@H](C)C(=O)N[C@@H](C)C(=O)N[C@@H](CCCCN)C(=O)N[C@@H](CCCCN)C(=O)N[C@@H](CCCCN)C(=O)NCC(=O)N[C@@H](CCCCN)C(=O)N[C@@H](CC(C)C)C(=O)N[C@H](C(=O)N[C@@H](Cc1c[nH]c2ccccc12)C(=O)N[C@@H](CCC(N)=O)C(=O)N[C@@H](CCC(=O)O)C(=O)N[C@@H](CC(C)C)C(=O)N[C@@H](Cc1ccc(O)cc1)C(=O)N[C@@H](CCC(N)=O)C(=O)N[C@@H](CC(C)C)C(=O)N[C@@H](CCCCN)C(=O)N[C@@H](Cc1ccc(O)cc1)C(=O)N[C@@H](CCCCN)C(=O)NCC(=O)N[C@H](C(N)=O)[C@@H](C)CC)[C@@H](C)O)C(C)C)C(C)C) [VEGF-PA]
time of stimulation at which phosphorylated VEGFR1 begins to decrease after initial rise [1]: 10 min
proliferation (cell number relative to unsupplemented growth media) [2]: 137.0%±2.4%
reduction in scratch wound size (denuded area) [3]: 68.7%±4.2%
